In patent publication US11731965B2, “Tetrahydroprotoberberine compound, preparation method therefor and uses thereof, and pharmaceutical composition” (SHANGHAI INSTITUTE OF MATERIA MEDICA, CHINESE ACADEMY OF …, priority 2017, dated 2023):

Legend:
[1] = biological target: T1, human recombinant D1 receptor (Homo sapiens, UniProt P21728); test: D1 antagonistic activity test (LANCE cAMP, antagonism of dopamine-induced cAMP production in HEK293 cells); format: cell-based; conditions: HEK293 cells expressing human recombinant D1 receptor; test concentration 0.1 nM to 10000 nM; read-out: D1 Antagonistic Activity (IC50, nmol/L)
T1 construct: expressed in transfected cells; host or cells: HEK293
Description: • 1) D1 antagonistic activity test
The D1 antagonism of the compound was evaluated by testing the antagonistic action of the compounds against dopamine on the induction of cAMP production in HEK293 cells. The cAMP concentration test was performed according to the method described in the kit instructions. The test concentration of the compound was 0.1 nM to 10000 nM. SCH23390 was used as a positive control. The IC50 was calculated by Excelfit software.

[2] = biological target: T2, human recombinant D2 receptor (Homo sapiens, UniProt P14416); test: D2 antagonistic activity test (LANCE cAMP, antagonism of dopamine inhibition of cAMP production in HEK293 cells); format: cell-based; conditions: HEK293 cells expressing human recombinant D2 receptor; test concentration 0.1 nM to 10000 nM; read-out: D2 Antagonistic Activity (IC50, nmol/L)
T2 construct: expressed in transfected cells; host or cells: HEK293
Description: LANCE™ cAMP 384 Kit (PerkinElmer, USA) was used to test the antagonism of the compound against the D1 receptor using the HEK293 cells expressing human recombinant D1 receptor. The D1 antagonism of the compound was evaluated by testing the antagonistic action of the compounds against dopamine on the induction of cAMP production in HEK293 cells. The cAMP concentration test was performed according to the method described in the kit instructions. The test concentration of the compound was 0.1 nM to 10000 nM. SCH23390 was used as a positive control. The IC50 was calculated by Excelfit software. The test results of some compounds were shown in Table 1. • 2) D2 antagonistic activity test LANCE™ cAMP 384 Kit (PerkinElmer, USA) was used to test the antagonism of the compound against the D2 receptor using the HEK293 cells expressing human recombinant D2 receptor. The D2 antagonism of the compound was evaluated by testing the antagonistic action of the compounds against dopamine on the inhibition of cAMP production in HEK293 cells. The cAMP concentration test was performed according to the method described in the kit instructions. The test concentration of the compound was 0.1 nM to 10000 nM. Risperidone was used as a positive control. The IC50 was calculated by Excelfit software. The test results of some compounds were shown in Table 1 (ND means the test was not performed).

T1 sequence (P21728 whole entry): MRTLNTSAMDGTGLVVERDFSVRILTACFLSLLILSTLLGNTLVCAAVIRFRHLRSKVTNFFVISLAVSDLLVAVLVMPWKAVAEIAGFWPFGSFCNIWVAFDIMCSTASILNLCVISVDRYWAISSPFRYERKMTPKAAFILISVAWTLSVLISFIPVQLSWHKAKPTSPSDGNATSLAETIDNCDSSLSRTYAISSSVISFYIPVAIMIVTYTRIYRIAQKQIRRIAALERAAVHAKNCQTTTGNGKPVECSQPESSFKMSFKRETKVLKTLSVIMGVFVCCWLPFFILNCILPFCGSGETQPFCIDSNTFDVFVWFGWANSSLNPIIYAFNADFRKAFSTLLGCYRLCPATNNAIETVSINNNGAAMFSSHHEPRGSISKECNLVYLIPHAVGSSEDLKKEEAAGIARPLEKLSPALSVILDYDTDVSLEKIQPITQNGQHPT
T2 sequence (P14416 whole entry): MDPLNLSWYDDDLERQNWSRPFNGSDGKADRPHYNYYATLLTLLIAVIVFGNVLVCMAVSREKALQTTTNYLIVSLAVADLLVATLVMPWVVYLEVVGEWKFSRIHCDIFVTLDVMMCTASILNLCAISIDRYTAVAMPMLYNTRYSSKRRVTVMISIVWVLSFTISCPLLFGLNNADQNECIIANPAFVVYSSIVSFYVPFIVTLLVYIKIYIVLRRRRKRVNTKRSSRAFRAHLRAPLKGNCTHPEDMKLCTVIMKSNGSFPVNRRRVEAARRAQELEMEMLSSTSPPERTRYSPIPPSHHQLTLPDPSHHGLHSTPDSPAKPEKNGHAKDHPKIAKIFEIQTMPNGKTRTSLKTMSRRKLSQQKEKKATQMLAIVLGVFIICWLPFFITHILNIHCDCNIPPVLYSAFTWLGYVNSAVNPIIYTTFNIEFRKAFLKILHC

Row | Structure (SMILES) | IC50 [1] | IC50 [2]
1 | COc1cc2c(cc1C#N)[C@@H]1Cc3ccc(OC)c(OC)c3CN1CC2 [Example 4, (S)-2-cyano-3,9,10-trimethoxy-6,8,13,13a-tetrahydro-5H-dibenzo [a,g] quinolizine] | 310 nmol/L | 950 nmol/L
2 | COc1cc2c(cc1OC)[C@@H]1Cc3ccc(OC)c(C=O)c3CN1CC2 [Example 24, (S)-2,3,10-trimethoxy-9-formyl-6,8,13,13a-tetrahydro-5H-dibenzo [a,g] quinolizine] | 1300 nmol/L | 
3 | COc1cc2c(cc1OC)[C@@H]1Cc3ccc(C(N)=O)c(OC)c3CN1CC2 [Example 28, (S)-2,3,9-trimethoxy-10-carbamoyl-6,8,13,13a-tetrahydro-5H-dibenzo[a,g] quinolizine] | 2160 nmol/L | 
4 | COc1cc2c(cc1OC)[C@@H]1Cc3ccc(C=O)c(OC)c3CN1CC2 [Example 29, (S)-2,3,9-trimethoxy-10-formyl-6,8,13,13a-tetrahydro-5H-dibenzo [a,g] quinolizine] |  | 2500 nmol/L
5 | COc1ccc2c(c1OC)CN1CCc3cc4ncoc4cc3C1C2 (stereo not shown) [Example 45, 9,10-Dimethoxy-6,8,13,13a-tetrahydro-5H-isoquinolino[3,2-a] oxazolo[4,5-g]isoquinoline] | 116 nmol/L | 
6 | COc1cc2c(cc1OCCO)[C@@H]1Cc3ccc(OCCO)c(OC)c3CN1CC2 [Example 55, (S)-2,10-di(hydroxyethoxy)-3,9-dimethoxy-6,8,13,13a-tetrahydro-5H-dibenzo [a,g] quinolizine] | 443 nmol/L | 

Further compounds by falling IC50 [2], results first:

Row | IC50 [1] | IC50 [2] | Structure (SMILES)
7 |  | 940 nmol/L | COc1cc2c(cc1OC)[C@@H]1Cc3ccc(C)c(OC)c3CN1CC2 [Example 26, (S)-2,3,9-trimethoxy-10-methyl-6,8,13,13a-tetrahydro-5H-dibenzo [a,g] quinolizine]
8 |  | 663 nmol/L | COc1cc2c(cc1OC)[C@@H]1Cc3ccc(CNC(C)=O)c(OC)c3CN1CC2 [Example 32, (S)-2,3,9-trimethoxy-10-acetaminomethyl-6,8,13,13a-tetrahydro-5H-dibenzo[a,g] quinolizine]
9 | 120 nmol/L | 550 nmol/L | COc1cc2c(cc1Br)[C@@H]1Cc3ccc(OC)c(OC)c3CN1CC2 [Example 15, (S)-2-bromo-3,9,10-tritmethoxy-6,8,13,13a-tetrahydro-5H-dibenzo [a,g] quinolizine]
10 | 1080 nmol/L | 510 nmol/L | COc1cc2c(cc1OC)[C@@H]1Cc3ccc(CO)c(OC)c3CN1CC2 [Example 30, (S)-2,3,9-trimethoxy-10-hydroxymethyl-6,8,13,13a-tetrahydro-5H-dibenzo[a,g] quinolizine]
11 |  | 390 nmol/L | COc1cc2c(cc1OC(F)F)[C@@H]1Cc3ccc(OC)c(OC)c3CN1CC2 [Example 51, (S)-2-(difluoromethoxy)-3,9,10-trimethoxy-6,8,13,13a-tetrahydro-5H-dibenzo[a,g] quinolizine]
12 | 49 nmol/L | 210 nmol/L | COc1cc2c(cc1C=O)[C@@H]1Cc3ccc(OC)c(OC)c3CN1CC2 [Example 6, (S)-2-formyl-3,9,10-trimethoxy-6,8,13,13a-tetrahydro-5H-dibenzo[a,g] quinolizine]
13 | 672 nmol/L | 139 nmol/L | COc1ccc2c(c1OC)CN1CCc3cc4nc[nH]c4cc3C1C2 (stereo not shown) [Example 44, 9,10-Dimethoxy-1,5,6,8,13,13a-hexahydroimidazo[4,5-g]isoquinolino [3,2-a]isoquinoline]
14 |  | 54 nmol/L | COc1ccc2c(c1OC)CN1CCc3cc(OC)c4nn[nH]c4c3[C@@H]1C2 [Example 43, (S)-4,10,11-trimethoxy-1,6,7,9,14,14a-hexahydroisoquinolino[3,2-a] [1,2,3]triazolo[4,5-h]isoquinoline]
